US8883842B2, “Use of HDAC inhibitors for the treatment of myeloma” (Novartis AG, priority 2005, dated 2014)

Key:
MM cells = test: Combination with proteasome inhibitor bortezomib on MM cells; format: cell-based, human
Description: DNA synthesis was measured by 3H-thymidine (NEN Products, Boston, Mass.) uptake. Cells were pulsed with 3H-thymidine (0.5 μCi/well) during the last 8 hours of 48-hour cultures. All of the experiments were performed in triplicate. Statistical significance of differences observed in drug-treated versus control cultures was determined using Student's t test. The minimal level of significance was p<0.05. […] The survival curves for mice were computed using the Kaplan-Meier method. The survival time differences between the control and treated group were compared using a log-rank test. The median survival times were compared using the Fisher-exact test. To compare the rate of tumor growth in the two arms, a linear mixed effect model (random coefficient model) was fitted.

MM patient cells = test: Growth inhibition (MTS assay and tritiated-thymidine uptake) in MM patient cells; format: cell-based; settings: Homo sapiens, 48 hours, read-out: median inhibitory concentration, myeloma cell growth
Description: (§1) Bortezomib-sensitive (MM.1S) and Bortezomib-resistant (MM.1R) human MM cell lines, as well as RPMI-8226 cells resistant to Doxorubicin (Dox 40), Mitoxantrone (MR20), and Melphalan (LR5), were cultured in RPMI-1640 media (Cellgro, Mediatech, VA) with 10% fetal bovine serum, 2 mmol/L L-glutamine (GIBCO, Grand Island, N.Y.), 100 U/mL penicillin, and […] streptomycin (GIBCO). Drug-resistant cell lines were cultured with either doxorubicin, mitoxantrone, melphalan or bortezomib to confirm their lack of drug sensitivity. MM patient cells were purified (>95% CD138+) by positive selection with anti-CD138 MACS Microbeads (Miltenyi, San Diego, Calif.).
(§2) DNA synthesis was measured by 3H-thymidine (NEN Products, Boston, Mass.) uptake. Cells were pulsed with 3H-thymidine (0.5 μCi/well) during the last 8 hours of 48-hour cultures. All of the experiments were performed in triplicate.
(§3) Cells from 24-, 48- or 72-hour cultures in 200 μL media plus drug were pulsed with 40 μL of 5 mg/mL MTS to each well for the last 4 hours of the cultures. Absorbance was measured at 490 nm using a spectrophotometer (Molecular Devices Corp., Sunnyvale, Calif.).

[1] = molecular target: T1, HDAC6, or tubulin deacetylase (TDAC) (Homo sapiens, UniProt Q9UBN7); test: Inhibition of TDAC (HDAC6, tubulin deacetylase) in MM.1S cells; format: cell-based; settings: low nanomolar concentrations
T1 construct: endogenous in cells; host or cells: MM.1S cells
T1 sequence (Q9UBN7 1-1215): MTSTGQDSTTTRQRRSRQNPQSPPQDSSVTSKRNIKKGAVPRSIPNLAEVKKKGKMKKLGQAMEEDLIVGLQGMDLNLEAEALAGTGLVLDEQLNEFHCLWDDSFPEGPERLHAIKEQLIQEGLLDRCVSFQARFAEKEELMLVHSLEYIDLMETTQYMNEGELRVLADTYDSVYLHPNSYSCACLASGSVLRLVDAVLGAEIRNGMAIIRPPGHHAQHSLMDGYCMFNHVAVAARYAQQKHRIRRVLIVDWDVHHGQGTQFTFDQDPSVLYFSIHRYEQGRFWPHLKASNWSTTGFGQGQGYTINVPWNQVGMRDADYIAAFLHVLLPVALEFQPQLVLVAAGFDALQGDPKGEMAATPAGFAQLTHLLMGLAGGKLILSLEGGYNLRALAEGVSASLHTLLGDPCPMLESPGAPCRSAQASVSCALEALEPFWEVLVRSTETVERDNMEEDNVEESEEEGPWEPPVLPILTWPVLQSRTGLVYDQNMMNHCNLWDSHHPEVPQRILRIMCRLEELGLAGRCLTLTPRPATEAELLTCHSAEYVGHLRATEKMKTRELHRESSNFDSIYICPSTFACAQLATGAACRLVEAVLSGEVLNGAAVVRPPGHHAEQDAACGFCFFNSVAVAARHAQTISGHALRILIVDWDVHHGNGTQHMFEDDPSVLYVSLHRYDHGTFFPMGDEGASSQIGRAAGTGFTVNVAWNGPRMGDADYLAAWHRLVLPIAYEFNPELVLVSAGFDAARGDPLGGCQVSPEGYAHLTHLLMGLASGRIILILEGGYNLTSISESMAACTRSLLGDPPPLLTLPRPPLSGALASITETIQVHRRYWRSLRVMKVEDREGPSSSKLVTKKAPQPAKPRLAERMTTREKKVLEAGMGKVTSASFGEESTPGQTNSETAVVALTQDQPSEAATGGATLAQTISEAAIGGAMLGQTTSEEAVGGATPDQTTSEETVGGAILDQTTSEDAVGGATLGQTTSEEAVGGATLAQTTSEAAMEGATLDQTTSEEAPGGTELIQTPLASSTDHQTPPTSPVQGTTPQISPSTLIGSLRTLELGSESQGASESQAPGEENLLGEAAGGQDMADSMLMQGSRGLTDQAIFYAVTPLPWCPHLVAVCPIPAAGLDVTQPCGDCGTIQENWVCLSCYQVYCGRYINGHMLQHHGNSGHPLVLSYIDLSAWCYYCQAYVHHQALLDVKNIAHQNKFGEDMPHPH
From the text: (§4) Cell lysates were subjected to SDS-PAGE, transferred to polyvinylidene difluoride (PVDF) membrane, and immunoblotted with anti-acetylated histone (Upstate Biotechnology, Lake Placid, N.Y.), anti-p21 antibody (Santa Cruz Biotech, Santa Cruz, Calif.), anti-PARP; anti-caspase-8, anti-caspase-9 and anti-caspase 3 (Cell Signaling, MA); as well as anti-polyubiquitin conjugates, anti-LMP7, anti-β5 (Affiniti, Mamhead, Exeter, Devon, UK). Membranes were stripped and re-probed with anti-tubulin or anti-β-actin (Sigma, St Louis, Mo.) to ensure equivalent protein loading.

[2] = system: MM.1S cells co-cultured with bone marrow stromal cells; test: MM.1S proliferation in co-culture with bone marrow stromal cells; format: cell-based, human
Description: Bone marrow specimens were obtained from patients with MM. Mononuclear cells, separated by FicoII-Hipaque density sedimentation, were used to establish long-term BM cultures. When an adherent cell monolayer had developed, cells were harvested in HBSS containing 0.25% trypsin and 0.02% EDTA and were washed and collected by centrifugation. The BMSCs were then plated onto flat-bottom 96-well plates overnight, and then 3×10^4 mM.1S cells were added for 48 hours. 150 μL of supernatant was removed and cells were pulsed with [3H]thymidine (0.5 μCi/well) during the last 8 hours of 48-hour cultures.

[3] = system: MM cell lines resistant to conventional therapies; test: Growth inhibition (MTS assay and tritiated-thymidine uptake) in MM cell lines; format: cell-based; settings: Homo sapiens, 48 h, read-out: median inhibitory concentration, myeloma cell growth
Description: as §1, §2, §3

MM.1S cells = test: Western blot of apoptosis and cell cycle markers in MM.1S cells; format: cell-based, human
From the text: as §4

**Q.** What does the source list for `Cc1[nH]c2ccccc2c1CCNCc1ccc(/C=C/C(=O)NO)cc1` [Compound (III), N-hydroxy-3-[4-[[[2-(2-methyl-1H-indol-3-yl)-ethyl]-amino]methyl]phenyl]-2E-2-propenamide]?
**A.** activity in combination with bortezomib (MM cells): Synergistic activity; IC50 (MM patient cells): < 10 nM; inhibition of TDAC [1]: dose-dependent inhibition; MM.1S myeloma cell proliferation [2]: inhibited; IC50 [3]: < 10 nM; c-myc expression (MM.1S cells): down-regulation; p21 expression (MM.1S cells): up-regulation; cleavage of caspase 8, caspase 9, caspase 3 and PARP (MM.1S cells; 20 nM): Significant cleavage
